Our source for the IC50 values is publication PMC9297786 (Molecular Oncology, 2022).

The assay addresses T1, ephrin type‐B receptor 4 (EPHB4) (Homo sapiens, UniProt P54760).
T1 construct: EPHB4 kinase (Carna Biosciences)
T1 sequence (P54760 16-987): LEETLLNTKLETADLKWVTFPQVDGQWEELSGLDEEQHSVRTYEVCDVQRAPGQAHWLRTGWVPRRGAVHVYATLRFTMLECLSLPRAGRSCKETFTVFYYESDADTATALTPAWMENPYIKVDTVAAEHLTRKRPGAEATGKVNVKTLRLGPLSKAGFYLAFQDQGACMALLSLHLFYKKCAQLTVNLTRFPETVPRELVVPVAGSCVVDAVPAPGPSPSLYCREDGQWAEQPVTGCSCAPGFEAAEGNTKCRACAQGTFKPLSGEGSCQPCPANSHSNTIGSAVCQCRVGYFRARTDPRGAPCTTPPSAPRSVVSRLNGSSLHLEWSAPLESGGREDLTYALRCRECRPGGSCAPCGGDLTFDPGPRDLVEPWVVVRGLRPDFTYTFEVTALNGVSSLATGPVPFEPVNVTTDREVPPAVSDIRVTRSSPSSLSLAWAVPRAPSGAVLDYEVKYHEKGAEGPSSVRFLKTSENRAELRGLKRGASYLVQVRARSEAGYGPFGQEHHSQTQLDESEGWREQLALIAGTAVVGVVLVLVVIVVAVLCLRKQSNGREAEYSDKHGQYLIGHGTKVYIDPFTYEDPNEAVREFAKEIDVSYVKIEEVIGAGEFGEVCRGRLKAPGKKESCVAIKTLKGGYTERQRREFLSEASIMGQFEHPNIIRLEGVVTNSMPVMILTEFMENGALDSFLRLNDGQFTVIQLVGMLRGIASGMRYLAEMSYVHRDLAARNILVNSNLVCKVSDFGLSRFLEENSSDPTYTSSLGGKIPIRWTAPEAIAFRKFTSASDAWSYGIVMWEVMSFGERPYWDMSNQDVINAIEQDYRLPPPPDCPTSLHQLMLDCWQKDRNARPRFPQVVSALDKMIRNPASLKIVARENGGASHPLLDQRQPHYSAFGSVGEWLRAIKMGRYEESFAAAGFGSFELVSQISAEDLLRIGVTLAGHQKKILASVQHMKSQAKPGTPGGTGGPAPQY
Kind of assay: Kinase‐Glo Plus luminescence kinase assay; SPR binding also measured. The class given is biochemical. The source says:
Kinase‐Glo Plus luminescence kinase assay; SPR binding also measured on ephrin type‐B receptor 4 (EPHB4) | […]
(Surface plasmon resonance follows binding to a sensor surface in real time, without labels.)

Usually IC50 stands for the concentration that inhibits the measured activity by half.

For `Cc1ccc(C(=O)Nc2cccc(C(F)(F)F)c2)cc1Nc1nc(-c2cccnc2)nc2c1cnn2C` [NVP‐BHG712], the IC50 worked out at 349 nM.
